Assays:
[1] = Resazurin cell viability assay, QBI293; assay type: cell-based; details: human, QBI293 cells, three biological replicates, read-out: QBI293 CC50 ± SD
Experimental: (§1) Cell Culture. QBI293 and HeLa cells were cultured in DMEM supplemented with 10% heat-
(§2) inactivated FBS and 1% penicillin-streptomycin. Cells were grown in T175 cell culture flasks maintained
(§3) at 37 ℃ in 5% CO2 and sub-c ultured when at 60-8 0% cell confluence.
(§4) Resazurin Cell Viability Assay. Cytotoxicity in QBI293 and HeLa cells was measured using the
(§5) resazurin cell viability assay.1 Test compounds were serially diluted in DMSO and added to 96-well
(§6) polystyrene assay plates to give final assay concentrations ranging from 100 nM to 4000 nM (1 µL; 1%
(§7) total DMSO). Fresh medium was added to the assay plate (49 µL/well). QBI293 or HeLa cells were
(§8) cells/well. Assay plates were incubated at 37 °C and 5% CO2 for 48 h, followed by addition of 20 µL 0.5
(§9) mM resazurin (Alfa Aesar, Cat. B21187) in PBS to each well. Assay plates were incubated in the dark for
(§10) (1 picture or pasted object on this page, not shown here)
(§11) 4 h at 37 °C. Fluorescence was measured at 531 nm and 595 nm excitation and emission wavelengths,
(§12) respectively, using a 2104 EnVision® multilabel plate reader. The viability of each well was normalized to
(§13) positive and negative controls in each assay plate. Dose-response curves were generated and CC50 values
(§14) calculated with GraphPad Prism, version 9.3 (San Diego, CA) using a sigmoidal four parameter logistic
(§15) curve. The means ± standard deviations from three biological replicates are shown.
(§16) (1) O'Brien, J.; Wilson, I.; Orton, T.; Pognan, F. Investigation of the Alamar Blue (resazurin) fluorescent
(§17) dye for the assessment of mammalian cell cytotoxicity. Eur. J. Biochem. 2000, 267 (17), 5421-5426.

[2] = Resazurin cell viability assay, HeLa; assay type: cell-based; details: human, HeLa cells, three biological replicates, read-out: HeLa CC50 ± SD
Experimental: as §1, §2, §3, §4, §5, §6, §7, §8, §9, §10, §11, §12, §13, §14, §15, §16, §17

[3] = test system: total α-tubulin (α-Tub) levels in QBI293 cells; set-up: method as in PMID 26980057, PMID 33411523; details: 4 h incubation, reported in previous studies, cited from earlier work
[4] = test system: total α-tubulin (α-Tub) levels in QBI293 cells; assay: QBI293 cell assay: total α-tubulin ELISA; assay type: cell-based; details: for fold induction at 1 µM / fold induction at 10 µM: 4 h; for fold induction at 1 µM: read-out: AlfaTub (1uM); for fold induction at 10 µM: read-out: AlfaTub (10 uM)
In short: (§18)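 AcTub and α-Tub were quantified by ELISA in whole-cell extracts normalized by BCA protein and expressed relative to vehicle. AcTub changes were also scaled to a 100 nM reference stabilizer control.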

[5] = test system: acetylated α-tubulin (AcTub) levels in QBI293 cells; set-up: method as in PMID 26980057, PMID 33411523; details: cited from earlier work; for Class (cellular phenotype): activity reported in previous studies
[6] = test system: acetylated α-tubulin (AcTub) levels in QBI293 cells; assay: QBI293 cell assay of MT stabilization: acetylated α-tubulin ELISA; assay type: cell-based; details: for fold induction at 1 µM / fold induction at 10 µM: 4 h; for fold induction at 1 µM: read-out: AcTub (1uM); for fold induction at 10 µM: read-out: AcTub (10 uM)
In short: as §18

[7] = 4 h incubation, reported in previous studies
[8] = 4 h incubation, 10 μM, reported in previous studies

## CC[C@]1(O)C[C@@H]2CN(CCc3c([nH]c4ccccc34)[C@@](C(=O)OC)(c3cc4c(cc3OC)N(C)[C@H]3[C@@](O)(C(=O)OC)[C@H](OC(C)=O)[C@]5(CC)C=CCN6CC[C@]43[C@@H]65)C2)C1 [Vinblastine, reference compound]
[1]
  CC50 at 48 h: 3.23 ± 0.67 nM
[2]
  CC50 at 48 h: 2.11 ± 0.1 nM

## CC1(CNc2c(-c3c(F)cc(F)cc3F)c(Cl)nc3ncnn23)N=N1 [Compound 61]
[3]
  α-Tub 1 μM, fold-change compared to vehicle (DMSO)-treated cells: 1.08 ± 0.04 fold-change
  α-Tub 10 μM, fold-change compared to vehicle (DMSO)-treated cells: 1.03 ± 0.04 fold-change
[4]; 1 uM compound
  fold induction at 1 µM: 1.08
[4]; 10 uM compound
  fold induction at 10 µM: 1.03
[5]; [7]
  AcTub 1 μM, fold-change compared to positive control compound 5 (100 nM) (in parentheses): 0.12 fold-change
[5]
  Class (cellular phenotype): I
[6]; 1 uM compound
  AcTub (1 uM - normalized): 0.12
  fold induction at 1 µM: 1.56
[6]; 10 uM compound
  AcTub (10 uM - normalized): 0.27
  fold induction at 10 µM: 3.42

## CC(C)[C@@H](Nc1c(-c2c(F)cc(F)cc2F)c(Cl)nc2ncnn12)C(F)(F)F [Compound 8]
[3]
  α-Tub 1 μM, fold-change compared to vehicle (DMSO)-treated cells: 1.10 ± 0.09 fold-change
[4]; 1 uM compound
  fold induction at 1 µM: 1.1
[4]; 10 uM compound
  fold induction at 10 µM: 0.61
[5]; [7]
  AcTub 1 μM, fold-change compared to vehicle (DMSO)-treated cells: 2.79 ± 0.04 fold-change
[5]; [8]
  AcTub 10 μM, fold-change compared to vehicle (DMSO)-treated cells: 13.0 ± 0.54 fold-change
[6]; 1 uM compound
  AcTub (1 uM - normalized): 0.16
  fold induction at 1 µM: 2.79
[6]; 10 uM compound
  AcTub (10 uM - normalized): 0.73
  fold induction at 10 µM: 13

## CC(C)(C)CNc1c(-c2c(F)cc(F)cc2F)c(Cl)nc2ncnn12 [Compound 11]
[3]
  α-Tub 1 μM, fold-change compared to vehicle (DMSO)-treated cells: 1.03 ± 0.07 fold-change
[4]; 1 uM compound
  AlfaTub (1uM): 1.03
[4]; 10 uM compound
  AlfaTub (10 uM): 1.06
[5]; [7]
  AcTub 1 μM, fold-change compared to positive control compound 5 (100 nM) (in parentheses): 0.30 fold-change
  AcTub 1 μM, fold-change compared to vehicle (DMSO)-treated cells: 2.04 ± 0.11 fold-change
[5]; [8]
  AcTub 10 μM, fold-change compared to vehicle (DMSO)-treated cells: 4.79 ± 0.74 fold-change
[5]
  Class (cellular phenotype): I
[6]; 1 uM compound
  AcTub (1uM): 2.04
  AcTub (1 uM - normalized): 0.30
[6]; 10 uM compound
  AcTub (10 uM): 4.79
  AcTub (10 uM - normalized): 0.71

## CC(C)[C@H](Nc1c(-c2c(F)cc(F)cc2F)c(Cl)nc2ncnn12)C(F)(F)F [Compound 9]
[3]
  α-Tub 1 μM, fold-change compared to vehicle (DMSO)-treated cells: 1.04 ± 0.01 fold-change
[4]; 1 uM compound
  fold induction at 1 µM: 1.04
[4]; 10 uM compound
  fold induction at 10 µM: 1.06
[5]
  Class (cellular phenotype): I
[6]; 1 uM compound
  AcTub (1 uM - normalized): 0.17
  fold induction at 1 µM: 3.12
[6]; 10 uM compound
  AcTub (10 uM - normalized): 0.38
  fold induction at 10 µM: 6.78

## CN(C)CCCOc1cc(F)c(-c2c(Cl)nc3ncnn3c2NCC2(C)N=N2)c(F)c1 [Compound 65]
[3]
  α-Tub 10 μM, fold-change compared to vehicle (DMSO)-treated cells: 0.19 ± 0.02 fold-change
[4]; 1 uM compound
  fold induction at 1 µM: 0.36
[4]; 10 uM compound
  fold induction at 10 µM: 0.19
[5]; [7]
  AcTub 1 μM, fold-change compared to positive control compound 5 (100 nM) (in parentheses): 0.81 fold-change
  AcTub 1 μM, fold-change compared to vehicle (DMSO)-treated cells: 10.5 ± 0.4 fold-change
[5]; [8]
  AcTub 10 μM, fold-change compared to positive control compound 5 (100 nM) (in parentheses): 0.02 fold-change
[6]; 1 uM compound
  AcTub (1 uM - normalized): 0.81
  fold induction at 1 µM: 10.5
[6]; 10 uM compound
  AcTub (10 uM - normalized): 0.02
  fold induction at 10 µM: 0.29

## C[C@@H](Nc1c(-c2c(F)cc(OCCCN(C)C)cc2F)c(Cl)nc2ncnn12)C1(C)N=N1 [Compound 66]
[3]
  α-Tub 10 μM, fold-change compared to vehicle (DMSO)-treated cells: 1.01 ± 0.05 fold-change
[4]; 1 uM compound
  fold induction at 1 µM: 0.73
[4]; 10 uM compound
  fold induction at 10 µM: 1.01
[6]; 1 uM compound
  AcTub (1 uM - normalized): 1.68
  fold induction at 1 µM: 21.7
[6]; 10 uM compound
  AcTub (10 uM - normalized): 0.07
  fold induction at 10 µM: 0.93

## C[C@H](Nc1c(-c2c(F)cc(OCCCO)cc2F)c(Cl)nc2ncnn12)C(F)(F)F [Compound 64]
[1]
  CC50 at 48 h: 226 ± 17 nM
[3]
  α-Tub 10 μM, fold-change compared to vehicle (DMSO)-treated cells: 0.37 ± 0.02 fold-change
[4]; 1 uM compound
  fold induction at 1 µM: 0.73
[4]; 10 uM compound
  fold induction at 10 µM: 0.37
[5]; [8]
  AcTub 10 μM, fold-change compared to vehicle (DMSO)-treated cells: 1.03 ± 0.02 fold-change
[6]; 1 uM compound
  AcTub (1 uM - normalized): 1.24
  fold induction at 1 µM: 6.76
[6]; 10 uM compound
  AcTub (10 uM - normalized): 0.19
  fold induction at 10 µM: 1.03
[2]
  CC50 at 48 h: 189 ± 19 nM

## C[C@H](Nc1c(-c2c(F)cc(OCCCN(C)C)cc2F)c(Cl)nc2ncnn12)C1(C)N=N1 [Compound 67]
[3]
  α-Tub 1 μM, fold-change compared to vehicle (DMSO)-treated cells: 0.69 ± 0.05 fold-change
[4]; 1 uM compound
  fold induction at 1 µM: 0.69
[4]; 10 uM compound
  fold induction at 10 µM: 0.78
[5]; [8]
  AcTub 10 μM, fold-change compared to vehicle (DMSO)-treated cells: 0.28 ± 0.03 fold-change
[6]; 1 uM compound
  AcTub (1 uM - normalized): 1.01
  fold induction at 1 µM: 6.7
[6]; 10 uM compound
  AcTub (10 uM - normalized): 0.04
  fold induction at 10 µM: 0.28

## C[C@H](Nc1c(-c2c(F)cc(F)cc2F)c(Cl)nc2ncnn12)C1(C)N=N1 [Compound 62]
[3]
  α-Tub 10 μM, fold-change compared to vehicle (DMSO)-treated cells: 0.94 ± 0.02 fold-change
[4]; 1 uM compound
  fold induction at 1 µM: 1.07
[4]; 10 uM compound
  fold induction at 10 µM: 0.94
[5]; [8]
  AcTub 10 μM, fold-change compared to vehicle (DMSO)-treated cells: 1.85 ± 0.08 fold-change
[5]
  Class (cellular phenotype): I
[6]; 1 uM compound
  AcTub (1 uM - normalized): 0.13
  fold induction at 1 µM: 0.84
[6]; 10 uM compound
  AcTub (10 uM - normalized): 0.28
  fold induction at 10 µM: 1.85

## CC(=O)O[C@H]1C(=O)[C@@]2(C)[C@H]([C@H](OC(=O)c3ccccc3)[C@]3(O)C[C@H](OC(=O)[C@H](O)[C@@H](NC(=O)c4ccccc4)c4ccccc4)C(C)=C1C3(C)C)[C@]1(OC(C)=O)CO[C@@H]1C[C@@H]2O [Taxol, reference compound]
[1]
  CC50 at 48 h: 1.29 ± 0.16 nM
[2]
  CC50 at 48 h: 1.53 ± 0.26 nM

Source: PMC9841533, “Microtubule-Stabilizing 1,2,4-Triazolo[1,5-a]pyrimidines as Candidate Therapeutics for Neurodegenerative Disease: Matched Molecular Pair Analyses and Computational Studies Reveal New Structure–Activity Insights” (Journal of Medicinal Chemistry, 2022)
